Test [1] deals with T1, androgen receptor (AR) and bromodomain-containing protein 4 (BRD4) protein (Homo sapiens, UniProt O60885+P10275).
T1 construct: endogenous in cells; host or cells: VCaP cells
The experiment in a line: Ternary complex formation in VCaP cells (AR capture antibody ELISA). In kind it is cell-based. The following applies: FIG. 1. On the procedure: Exemplary compounds were tested for ability to form a ternary complex containing a test compound, androgen receptor (AR), and bromodomain-containing protein 4 (BRD4) protein.
VCaP cells were cultured in ATCC DMEM medium supplemented with 10% ATCC fetal bovine serum, and 1% pen-strep (culture medium). 5000 cells were seeded in 100 μL of culture medium, per well in a clear 96-well poly-D-lysine coated plate. Plates were equilibrated to room temperature for 30 minutes. After equilibration, plates were incubated at 37° C. with 5% CO2 in a humidified tissue culture incubator. Black, opaque 96-well MaxiSorp plates were coated with 50 μL of a solution of androgen receptor antibody diluted in phosphate buffered saline (PBS). The coated plates were then quick-spun for 30 seconds before being sealed and placed in a fridge at 4° C. overnight. Test compounds were titrated in 100% DMSO the day before the experiment was performed and were left sealed in the dessicator overnight. QuantaRed™ Enhanced Chemifluorescent HRP Substrate Kit was taken out from 4° C. to warm up to room temperature. Plates coated with androgen receptor antibody were washed three times with 200 μL 1× Tris -Buffered Saline plus 0.1% Tween20 (TBST), then blocked with 200 μL 3% bovine serum albumin in TBST for approximately […] on a room temperature plate shaker at 500 rpm for 1 hour. […]
A general note: An ELISA detects its analyte on a solid surface through an enzyme-linked reagent.

The subject of test [2] is T-Rex 293 cell line SC3 cells lacking increased expression of androgen receptor protein. The experiment in a line: Cellular growth inhibition, T-Rex 293 SC3 cells without doxycycline (CellTiter-Glo 2.0, 72 hours). It counts as cell-based. The following applies: 72 h, T-Rex 293 SC3 cells not exposed to doxycycline (no increased androgen receptor expression). Background: Cellular ATP, detected with luciferase, serves as a proxy for viable cell number.

Some results are limits rather than exact numbers.

For orientation: GI50 means the concentration at which growth is held to half of that of the control.

T1 sequence (P10275 whole entry, other chains not shown): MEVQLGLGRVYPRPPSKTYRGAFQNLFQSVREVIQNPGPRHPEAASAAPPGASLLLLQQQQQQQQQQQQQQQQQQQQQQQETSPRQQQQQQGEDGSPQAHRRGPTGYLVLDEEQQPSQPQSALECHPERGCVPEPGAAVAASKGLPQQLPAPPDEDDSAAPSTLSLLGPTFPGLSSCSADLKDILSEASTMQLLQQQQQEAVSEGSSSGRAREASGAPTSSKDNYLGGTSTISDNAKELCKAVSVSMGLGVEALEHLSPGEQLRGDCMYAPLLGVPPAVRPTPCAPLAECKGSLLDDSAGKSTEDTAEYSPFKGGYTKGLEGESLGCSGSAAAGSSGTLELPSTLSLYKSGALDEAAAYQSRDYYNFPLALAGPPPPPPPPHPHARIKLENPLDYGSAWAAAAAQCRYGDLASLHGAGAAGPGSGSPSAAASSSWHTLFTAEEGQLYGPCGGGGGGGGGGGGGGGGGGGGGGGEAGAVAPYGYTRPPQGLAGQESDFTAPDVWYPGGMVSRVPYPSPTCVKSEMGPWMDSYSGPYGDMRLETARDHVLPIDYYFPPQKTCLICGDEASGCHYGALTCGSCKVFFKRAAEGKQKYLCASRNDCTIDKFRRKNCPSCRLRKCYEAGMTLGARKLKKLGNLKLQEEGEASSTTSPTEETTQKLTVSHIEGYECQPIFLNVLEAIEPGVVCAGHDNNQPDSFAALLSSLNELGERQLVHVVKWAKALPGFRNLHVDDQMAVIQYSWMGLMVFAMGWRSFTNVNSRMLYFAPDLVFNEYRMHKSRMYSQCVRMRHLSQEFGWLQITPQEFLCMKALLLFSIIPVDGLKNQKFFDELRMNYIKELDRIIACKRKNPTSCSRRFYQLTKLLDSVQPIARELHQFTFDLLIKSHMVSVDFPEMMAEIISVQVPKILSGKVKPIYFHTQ

As to `COc1cc(O[C@H]2C(C)(C)[C@H](NC(=O)c3cnc(N4CCC5(CC4)CC(Oc4ccc(C6=N[C@@H](Cc7ncco7)c7nnc(C)n7-c7sc(C)c(C)c76)cc4)C5)nc3)C2(C)C)ccc1C#N` [II-5, N-[(1r,3r)-3-(4-cyano-3-methoxy-phenoxy)-2,2,4,4-tetramethyl-cyclobutyl]-2-[2-[4-[(9S)-4,5,13-trimethyl-9-(oxazol-2-ylmethyl)-3-thia-1,8,11,12-tetrazatricyclo[8.3.0.0^2,6]trideca-2 (6),4,7,10,12-pentaen-7-yl]phenoxy]-7-azaspiro[3.5]nonan-7-yl]pyrimidine-5-carboxamide], the “ternary complex formation between test compound, androgen receptor, and BRD4” value in test [1] is “detected”. The GI50 in test [2] was less than 0.5 µM.
